# According to patent publication US4717727A, “Esters of pyridine-2,4- and 2,5-dicarboxylic acid as medicaments for the inhibition of proline hydroxylase and lysine hydroxylase” (Hoechst Aktiengesellschaft, priority 1984, dated 1988):
# How the values were obtained:
# [1] = tested on: proline hydroxylase; test: Inhibition of collagen proline hydroxylation in organ culture (isolated calvariae / EHS sarcoma tissue), ratio of 14C-proline to 14C-hydroxyproline; assay type: cell-based; conditions: Inhibition 50 %; incubation with 14C-proline, ratio 14C-proline to 14C-hydroxyproline in extracted collagen; read-out: Conc. giving the stated Inhibition, % (50)
# Experimental: Determination of the inhibitory effect is described below.
# (a) Tissue of the EHS sarcoma tumor, which produces an extracellular matrix resembling basal membrane and produces, in particular, type IV collagen (Erkin et al., Exp. Med. 145 (1977) 204-220), is incubated in analogy to the method of K. Tryggvason et al. (Biochemistry 19 (1980) 1248-1289) in the presence of ^14 C-proline and of inhibitors in various concentrations. After the incubation has been stopped, the tissue is homogenized and extracted with dilute acetic acid. After NaCl precipitation, the extracted collagen was hydrolyzed with 6 M HCl, and the ratio of ^14 C-proline to ^14 C-hydroxyproline was determined.
# (b) Isolated calvariae are incubated in analogy to the method of B. Peterkovsky and R. DiBlasio (Anal. Biochem. 66 (1975) 279-286) in the presence of U-^14 C-proline and inhibitors. After the incubation has been stopped, the calvariae are homogenized, and the collagen is extracted with dilute acetic acid. After hydrolysis of the extract with 6 M HCl, the ratio of ^14 C-proline to ^14 C-hydroxyproline is determined.
# [2] = tested on: collagen biosynthesis in cell culture; conditions: cited from earlier work
# [3] = biological target: T1, proline hydroxylase (Gallus gallus, UniProt P16924); conditions: cited from earlier work
# T1 sequence (P16924 1-516): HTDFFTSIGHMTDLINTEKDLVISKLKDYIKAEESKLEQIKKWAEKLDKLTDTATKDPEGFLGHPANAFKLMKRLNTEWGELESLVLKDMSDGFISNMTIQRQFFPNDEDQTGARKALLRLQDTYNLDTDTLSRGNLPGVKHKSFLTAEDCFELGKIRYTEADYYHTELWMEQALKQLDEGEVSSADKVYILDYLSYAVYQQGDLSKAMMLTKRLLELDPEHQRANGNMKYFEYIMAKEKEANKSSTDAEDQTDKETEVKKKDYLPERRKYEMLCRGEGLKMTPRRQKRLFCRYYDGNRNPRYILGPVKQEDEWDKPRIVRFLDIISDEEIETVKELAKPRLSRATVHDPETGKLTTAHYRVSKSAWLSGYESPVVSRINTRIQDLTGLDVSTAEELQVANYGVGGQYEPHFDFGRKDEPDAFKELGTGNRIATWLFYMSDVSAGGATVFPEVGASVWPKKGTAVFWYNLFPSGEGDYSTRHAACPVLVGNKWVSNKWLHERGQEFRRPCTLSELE
# T1 sequence (P09102 23-515 partner): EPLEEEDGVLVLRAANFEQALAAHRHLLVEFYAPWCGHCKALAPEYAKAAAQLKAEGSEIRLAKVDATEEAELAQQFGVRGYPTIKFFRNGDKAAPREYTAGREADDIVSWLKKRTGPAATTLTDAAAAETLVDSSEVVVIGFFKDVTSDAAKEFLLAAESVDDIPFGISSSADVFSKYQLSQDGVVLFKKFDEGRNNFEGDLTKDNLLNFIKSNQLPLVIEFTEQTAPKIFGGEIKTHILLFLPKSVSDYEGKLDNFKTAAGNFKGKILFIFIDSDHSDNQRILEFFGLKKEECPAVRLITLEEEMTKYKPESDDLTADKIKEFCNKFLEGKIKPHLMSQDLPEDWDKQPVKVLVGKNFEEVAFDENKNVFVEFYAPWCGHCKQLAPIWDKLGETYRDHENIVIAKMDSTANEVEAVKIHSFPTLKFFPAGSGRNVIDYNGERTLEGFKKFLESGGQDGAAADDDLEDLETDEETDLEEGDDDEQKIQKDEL
# [4] = tested on: Clq biosynthesis by macrophages; conditions: cited from earlier work
SMILES,IC50 [1] [µM],inhibitory effectiveness in cell culture [2],inhibition of proline hydroxylase [3],inhibition of Clq biosynthesis by macrophages [4]
O=C(O)c1ccc(C(=O)O)nc1 [H 5],2100,effective inhibitors only in very high concentrations,effectively inhibited,
"c1ccc(-c2ccccn2)nc1 [α,α'-dipyridyl]",,,,leads to inhibition of Clq biosynthesis

# More lines, in order of falling IC50 [1], values ahead:
IC50 [1] [µM],SMILES,inhibitory effectiveness in cell culture [2],inhibition of proline hydroxylase [3],inhibition of Clq biosynthesis by macrophages [4]
670,O=C(O)c1ccnc(C(=O)O)c1 [H 4],effective inhibitors only in very high concentrations,effectively inhibited,
90,CCOC(=O)c1ccc(C(=O)OCC)nc1 [C2 H5 5],,,
3,CCOC(=O)c1ccnc(C(=O)OCC)c1 [C2 H5 4],,,
